Test results: PMC10928227, “Assessing biologic/toxicologic effects of extractables from plastic contact materials for advanced therapy manufacturing using cell painting assay and cytotoxicity screening” (Scientific Reports, 2024)
Values joined by “and” are separate entries in the source; they are usually repeats but may differ in a detail not shown here. Equal entries are not always repeated. “Also recorded” adds a separate entry of the source. Where two headings read alike, the source gives them in different places. Values belong to the compound of their own block, whether it stands above or below them.

What was measured:
[1] = system: murine mesodermal stem cells (C3H10T1/2); experiment: Osteogenesis inhibition assay (OIA), purmorphamine-induced alkaline phosphatase expression; assay type: cell-based; settings: for IC50: read-out: Osteogenesis inhibition assay IC50
Protocol: The osteogenesis inhibition assay was performed as described elsewhere[57]. Briefly, murine mesodermal stem cells (C3H10T1/2) were stimulated with purmorphamine (a Hedgehog agonist) to induce the expression of the osteogenesis marker alkaline phosphatase.

CHO DG44 cells = experiment: Cytotoxicity testing with CHO cells, cell growth spiking experiments (ASTM E3231-19); assay type: cell-based, Chinese hamster; settings: read-out: EC50 with CHO cells
Protocol: The cell line was adapted to grow in suspension without animal-derived supplements. […] This method determines effective concentrations (EC50) that cause 50% inhibition of cell growth. Data evaluation was carried out according to the method described in ASTM E3231-19, “Standard Guide for Cell Culture Growth Assessment of Single-Use Material[23]”. This test defines best practices using serum-free, chemically-defined cell culture medium to prevent false negative results.

[2] = system: U2OS human osteosarcoma cells; experiment: Cell painting assay (CPA), morphological profiling and cell count; assay type: cell-based; settings: for Percentage of changed features, AreaShape group: shape of the cells; for Lysosomotropic behavior in CPA: cluster assignment in words, N-Lauryldiethanolamine at 30 µM
Protocol: Initially, 5 µL U2OS medium were added to each well of a 384-well plate (PerkinElmer CellCarrier-384 Ultra). Subsequently, U2OS cell were seeded with a density of 1600 cells per well in 20 µL medium. The plate was incubated for 10 min at room temperature (RT), followed by an additional 4 h incubation (37 °C, 5% CO2). […] Incubation with compound was performed for 20 h (37 °C, 5% CO2). Subsequently, mitochondria were stained with Mito Tracker Deep Red (Thermo Fisher Scientific, Cat. No. M22426). The Mito Tracker Deep Red stock solution (1 mM) was diluted to a final concentration of 100 nM in prewarmed medium. The medium was removed from the plate leaving 10 µL residual volume and 25 µL of the Mito Tracker solution were added to each well. The plate was incubated for 30 min in darkness (37 °C, 5% CO2). To fix the cells, 7 µl of 18.5% formaldehyde in PBS were added, resulting in a final formaldehyde concentration of 3.7%. Subsequently, the plate was incubated for another 20 min in darkness (RT) and washed three times with 70 µL of PBS (Biotek Washer Elx405). Cells were permeabilized by addition of 25 µL 0.1% Triton X-100 to each well, followed by 15 min incubation (RT) in darkness. The cells were washed three times with PBS leaving a final volume of 10 µL. To each well 25 µL of a staining solution were added, which contains 1% BSA, 5 µL/mL Phalloidin (Alexa594 conjugate, Thermo Fisher Scientific, A12381), 25 µg/ml Concanavalin A (Alexa488 conjugate, Thermo Fisher Scientific, Cat. No. C11252), 5 µg/ml Hoechst 33342 (Sigma, Cat. No. B2261-25 mg), 1.5 µg/ml WGA-Alexa594 conjugate (Thermo Fisher Scientific, Cat. No. W11262) and 1.5 µM SYTO 14 solution (Thermo Fisher Scientific, Cat. No. S7576). The plate is incubated for 30 min (RT) in darkness and washed three times with 70 µL PBS. After the final washing step, the PBS was not aspirated. The plates were sealed and centrifuged for 1 min at 50 × g.
The images generated were processed with the CellProfiler package (https://cellprofiler.org/, version 3.0.0) on a computing cluster of the Max Planck Society to extract 1716 cell features per microscope site. The data was further aggregated as medians per well (9 sites → 1 well), then over the three replicates.
Out of the initial 1716 features, a subset of 579 highly reproducible and robust features was determined using a procedure based on the criteria described by Woehrmann et al.[54] Two biological repeats of one plate containing reference compounds were analysed. For every feature, its full profile over each whole plate was calculated. […] This procedure was performed once and served as the basis for all subsequent analyses.
The phenotypic profiles were compiled from the Z-scores of all individual cellular features, where the Z-score is a measure of how far away a data point is from a median value.
Specifically, Z-scores of test compounds were calculated relative to the Median of DMSO controls. Thus, the Z-score of a test compound defines how many MADs (Median Absolute Deviations) the measured value is away from the Median of the controls as illustrated by the following formula: Z-score=valuemeas.-MedianControls/MADControls
The phenotypic compound profile is then determined as the list of Z-scores of all features for one compound and is visualized via heatmap (examplarily see Fig. 2).

[3] = cited from earlier work
[4] = design: method as in ref EURL ECVAM genotoxicity and carcinogencity database, Madia F et al, 2020; settings: scale Mutagenicity I (ECVAM), ref EURL ECVAM genotoxicity and carcinogencity database, Madia F et al, 2020; cited from earlier work
[5] = cited from earlier work; for Gene mutation, Mammalian Cell Gene Mutation Assay: T-lymphoma Cell Lines
[6] = system: different industrial cell lines; design: method as in PMID 34411651, PMID 32535801, PMID 32748552; settings: read-out: EC50 cell growth; cited from earlier work
CHO cells = system: CHO cells; design: method as in ref 22 (supplement); settings: detrimental effect on cell growth; ref 22 (supplement); cited from earlier work
[7] = 30 µM, U2OS, 20 h, percentage of altered features (579) vs DMSO controls
[8] = biosimilarity of CPA sub-profile to cluster
[9] = Database Genotoxicity & Carcinogenicity ECVAM, ref EURL ECVAM genotoxicity and carcinogencity database, Madia F et al, 2020
[10] = in Vivo, Database Genotoxicity & Carcinogenicity ECVAM, ref EURL ECVAM genotoxicity and carcinogencity database, Madia F et al, 2020
[11] = in Vivo, Database Genotoxicity OASIS, ref Yu F. Sasaki et. al., 2000, Critical Reviews in Toxicology,30(6),Pp.629-799
[12] = in Vitro, Chinese hamster, Chinese Hamster Lung (CHL), Duration 24÷48 h, Database Genotoxicity OASIS, ref Sofuni, T., Ed. (1998). Data Book of Chromosomal Aberration Test In Vitro, Revised Edition
[13] = in Vitro, Database Genotoxicity & Carcinogenicity ECVAM, ref EURL ECVAM genotoxicity and carcinogencity database, Madia F et al, 2020
[14] = in Vitro, Database Genotoxicity OASIS, ref Mutation Research 584 (2005) 1-256, Kirkland et al.
[15] = C3H10T1/2, purmorphamine, 96 h, alkaline phosphatase expression
[16] = CHO DG44, serum-free chemically defined medium, 72 h, 50% inhibition of cell growth

Compound: CCCCCCCCCc1ccc(O)cc1 [4-n-Nonylphenol]
IC50 ([1]; Mus musculus, C3H 10T1/2, 96 h): 3.8 µM
EC50 (CHO DG44 cells; Cricetulus griseus, CHO-DG44, 72 h): > 4.5 µM
Induction in CPA [2, 7]: 17 (30 µM) %
Cell count ([2]; 50 µM, U2OS, 20 h): 91 (50 µM) % of control
Highest similarity to biological clusters: DNA synthesis [2, 8]: DNA synthesis (70%)

Compound: O=C1CCCCCN1 [105-60-2]
Chromosome aberration, in Vivo Mammalian Chromosome Aberration Test [3, 9]: Negative
Chromosome aberration, Micronucleus Assay [3, 10]: Negative
DNA damage and repair, COMET or Alkaline Elution [3, 10]: Negative
DNA and protein damage, Liver Micronucleus ([3]; in Vivo, Database Genotoxicity OASIS, ref T. Shirotori, M. Miyagawa, Proceeding of the 26th JEMS Annual Meeting, Hatano, 1997, p. 83): Negative
Chromosome aberration, Micronucleus Assay [3, 11]: Negative
DNA damage and repair, Single Cell Gel Electrophoresis (comet) Assay [3, 11]: Negative
Genetic Toxicity, unscheduled DNA synthesis (UDS in Vivo) [4]: Negative
Gene mutation, Bacterial Reverse Mutation Assay (e.g. Ames Test) ([5]; Salmonella typhimurium, No Strain Information, in Vitro, Database: Genotoxicity OASIS, ref Mutation Research 584 (2005) 1-256, Kirkland et al.): Negative
Gene mutation, Bacterial Reverse Mutation Assay (e.g. Ames Test) ([5]; Salmonella typhimurium, Strain TA 97, in Vitro, Database: Bacterial mutagenicity ISSSTY, ref CCRIS database,Toxnet databases (Romualdo Benigni)): Negative
Gene mutation, Bacterial Reverse Mutation Assay (e.g. Ames Test) ([5]; Salmonella typhimurium, Strain TA 98, in Vitro, Database: Bacterial mutagenicity ISSSTY, ref CCRIS database,Toxnet databases (Romualdo Benigni)): Negative
Gene mutation, Bacterial Reverse Mutation Assay (e.g. Ames Test) ([5]; Salmonella typhimurium, Strain TA 98, in Vitro, Database: Genotoxicity OASIS, ref P&G): Negative
Gene mutation, Bacterial Reverse Mutation Assay (e.g. Ames Test) ([5]; Salmonella typhimurium, Strain TA 100, in Vitro, Database: Bacterial mutagenicity ISSSTY, ref CCRIS database,Toxnet databases (Romualdo Benigni)): Negative
Gene mutation, Bacterial Reverse Mutation Assay (e.g. Ames Test) ([5]; Salmonella typhimurium, Strain TA 100, in Vitro, Database: Genotoxicity OASIS, ref P&G): Negative
Gene mutation, Bacterial Reverse Mutation Assay (e.g. Ames Test) ([5]; Salmonella typhimurium, Strain TA 102, in Vitro, Database: Bacterial mutagenicity ISSSTY, ref CCRIS database,Toxnet databases (Romualdo Benigni)): Negative
Gene mutation, Bacterial Reverse Mutation Assay (e.g. Ames Test) ([5]; Salmonella typhimurium, Strain TA 1535, in Vitro, Database: Bacterial mutagenicity ISSSTY, ref CCRIS database,Toxnet databases (Romualdo Benigni)): Negative
Gene mutation, Bacterial Reverse Mutation Assay (e.g. Ames Test) ([5]; Salmonella typhimurium, Strain TA 1535, in Vitro, Database: Genotoxicity OASIS, ref P&G): Negative
Gene mutation, Bacterial Reverse Mutation Assay (e.g. Ames Test) ([5]; Salmonella typhimurium, Strain TA 1537, in Vitro, Database: Bacterial mutagenicity ISSSTY, ref CCRIS database,Toxnet databases (Romualdo Benigni)): Negative
Gene mutation, Bacterial Reverse Mutation Assay (e.g. Ames Test) ([5]; Salmonella typhimurium, Strain TA 1537, in Vitro, Database: Genotoxicity OASIS, ref P&G): Negative
Gene mutation, Bacterial Reverse Mutation Assay (e.g. Ames Test) ([5]; Salmonella typhimurium, Strain TA 1538, in Vitro, Database: Bacterial mutagenicity ISSSTY, ref CCRIS database,Toxnet databases (Romualdo Benigni)): Negative
Chromosome aberration, in Vitro Mammalian Chromosome Aberration Test ([5]; in Vitro, Chinese hamster, Chinese Hamster Lung (CHL), Database Genotoxicity OASIS, ref ECHA, Registration dossier): Positive
Chromosome aberration, in Vitro Mammalian Chromosome Aberration Test [5, 12]: Negative
Chromosome aberration, Micronucleus Assay [5, 13]: Negative
Chromosome aberration, in Vitro Mammalian Chromosome Aberration Test [5, 13]: Negative
DNA damage and repair, COMET or Alkaline Elution [5, 13]: Negative
Gene mutation, Bacterial Reverse Mutation Assay (e.g. Ames Test) [5, 13]: Negative
Gene mutation, Mammalian Cell Gene Mutation (MLA HPRT) [5, 13]: Negative
Gene mutation, Bacterial Reverse Mutation Assay (e.g. Ames Test) ([5]; in Vitro, Salmonella typhimurium, No Strain Information, Database Genotoxicity OASIS, ref Journal of Medicinal Chemistry 48 (1), pp. 312-32, 25, Kazius J, McGuire R., Bursi R): Negative
Gene mutation, Bacterial Reverse Mutation Assay (e.g. Ames Test) ([5]; in Vitro, Salmonella typhimurium, Strain TA 97, Database Genotoxicity OASIS, ref P&G): Negative
Gene mutation, Bacterial Reverse Mutation Assay (e.g. Ames Test) ([5]; in Vitro, Salmonella typhimurium, Strain TA 98, Database Genotoxicity OASIS, ref P&G): Negative
Gene mutation, Bacterial Reverse Mutation Assay (e.g. Ames Test) ([5]; in Vitro, Salmonella typhimurium, Strain TA 100, Database Genotoxicity OASIS, ref P&G): Negative
Gene mutation, Bacterial Reverse Mutation Assay (e.g. Ames Test) ([5]; in Vitro, Salmonella typhimurium, Strain TA 102, OECD Guideline 471, Database Genotoxicity OASIS, ref CCRIS database,Toxnet databases): Negative
Gene mutation, Bacterial Reverse Mutation Assay (e.g. Ames Test) ([5]; in Vitro, Salmonella typhimurium, Strain TA 1535, Database Genotoxicity OASIS, ref P&G): Negative
Gene mutation, Bacterial Reverse Mutation Assay (e.g. Ames Test) ([5]; in Vitro, Salmonella typhimurium, Strain TA 1537, Database Genotoxicity OASIS, ref P&G): Negative
Gene mutation, Bacterial Reverse Mutation Assay (e.g. Ames Test) ([5]; in Vitro, Salmonella typhimurium, Strain TA 1538, Database Genotoxicity OASIS, ref P&G): Negative
Gene mutation, Mammalian Cell Gene Mutation Assay [5, 14]: Negative
Genetic Toxicity, unscheduled DNA synthesis (UDS in Vitro) ([5]; in Vitro, scale Mutagenicity I (ECVAM), ref EURL ECVAM genotoxicity and carcinogencity database, Madia F et al, 2020): Negative

Compound: Cc1cc(C(C)(C)C)c(O)c(C(C)(C)C)c1 [128-37-0]
Chromosome aberration, in Vivo Mammalian Chromosome Aberration Test [3, 9]: Negative
Chromosome aberration, Micronucleus Assay [3, 10]: Negative
DNA damage and repair, COMET or Alkaline Elution [3, 10]: Positive
DNA damage and repair, DNA Adducts [3, 10]: Negative
Chromosome aberration, Micronucleus Assay ([3]; in Vivo, Database Genotoxicity OASIS, ref Bruce, W. R., & Heddle, J. A. (1979), Can. J. Genet. Cytol. 21, 319-334): Negative
DNA damage and repair, Single Cell Gel Electrophoresis (comet) Assay [3, 11]: Negative
Chromosome aberration, in Vitro Mammalian Chromosome Aberration Test ([5]; in Vitro, Chinese hamster, Chinese Hamster Lung (CHL), Duration 6÷18 h, Database Genotoxicity OASIS, ref Sofuni, T., Ed. (1998). Data Book of Chromosomal Aberration Test In Vitro, Revised Edition): Negative
Chromosome aberration, in Vitro Mammalian Chromosome Aberration Test [5, 12]: Negative
Chromosome aberration, in Vitro Mammalian Chromosome Aberration Test [5, 13]: Equivocal
Gene mutation, Mammalian Cell Gene Mutation (MLA HPRT) [5, 13]: Positive
Chromosome aberration, in Vitro Mammalian Chromosome Aberration Test ([5]; in Vitro, No Strain Information, Database Genotoxicity OASIS, ref Mutation Research 584 (2005) 1-256, Kirkland et al.): Negative
Gene mutation, Mammalian Cell Gene Mutation Assay [5, 14]: Positive

IC50 [1, 15]: ≥ 10 µM
Compound: CCCCCCCCCCCCN(CCO)CCO [N-Lauryldiethanolamine]
Toxic concentration in the osteogenesis inhibition assay ([1]; C3H10T1/2, excluded from dose-response measurement): ≥ 10 µM
EC50 (CHO DG44 cells; [16]): 2.1 µM
Induction in CPA ([2]; 3 µM, U2OS, 20 h, percentage of altered features (579) vs DMSO controls): 61% and 61 (3 µM) %
U2OS cell count compared to the control ([2]; 30 µM, after 24 h incubation): 50%
Cell count ([2]; 50 µM, U2OS, 20 h): 11 (50 µM) % of control
Percentage of changed features, all channels ([2]; Fig. 6, 3 µm): 50 to 90%
Percentage of changed features, AreaShape group ([2]; Fig. 6): all features
Concentration from which strong inhibitory effect on cell growth starts ([2]; U2OS, CPA): ≥ 30 µM
Highest similarity to biological clusters: Cholesterol homeostasis [2, 8]: 88%
Lysosomotropic behavior in CPA [2]: some lysosomotropic behavior
Induction in CPA ([2]; tested concentrations ≤ 50 µM, concentration not given at the place, active threshold 5%): > 5%

Compound: Cc1cc(C)c(C(=O)P(=O)(c2ccccc2)c2ccccc2)c(C)c1 [TPO, diphenyl(2,4,6-trimethylbenzoyl)phosphine oxide]
IC50 ([1]; Mus musculus, C3H 10T1/2, C3H10T1/2, purmorphamine, 96 h, alkaline phosphatase expression): 5 µM
EC50 (CHO DG44 cells; Cricetulus griseus, CHO DG44, serum-free chemically defined medium, 72 h, 50% inhibition of cell growth): 4.4 µM
Risk based on in vitro genotoxicity data from database (from QSAR-toolbox) ([5]; not checked for in vivo relevance, ref QSAR Toolbox 4.5 database): No alert
Induction in CPA [2, 7]: 11 (30 µM) %
Cell count ([2]; 50 µM, U2OS, 20 h): 94 (50 µM) % of control
Percentage of changed features, nuclei (Hoechst) channel ([2]; Fig. 6): approx. 5%
Percentage of changed features, AreaShape group ([2]; Fig. 6): ~30%
Highest similarity to biological clusters: HDAC [2, 8]: 77%
Lysosomotropic behavior in CPA [2]: lysosomotropic behavior; also recorded: Weak lysosomotropic

IC50 [1, 15]: 6.8 µM
Compound: CC(C)(C)c1ccc(OP(=O)(O)Oc2ccc(C(C)(C)C)cc2C(C)(C)C)c(C(C)(C)C)c1 [bDtBPP, bis(2,4-di-tert-butylphenyl)phosphate]
EC50 [6]: < 1 µM
EC50 (CHO cells): < 1 µM
EC50 (CHO DG44 cells; [16]): 0.6 µM
Cell count ([2]; 50 µM, U2OS, 20 h): 87 (50 µM) % of control
Induction in CPA ([2]; 50 µM, U2OS, 20 h, percentage of altered features (579) vs DMSO controls): 17 (50 µM) %
Percentage of changed features, AreaShape group ([2]; Fig. 6): approx. 20%
Highest similarity to biological clusters: DNA synthesis [2, 8]: DNA synthesis (65%)
Impact on cell growth of U2OS cells ([2]; concentrations ≤ 50 µM, in words): no impact on cell growth
